Measured values taken from PubChem BioAssay (NCI).
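Exposure lasted 48 hours, with cells grown in 96-well plates and compounds tested at five concentrations. GI50 = concentration required for 50% inhibition of growth. TGI: concentration producing complete growth inhibition.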

Key:
Test in all cases: NCI tumour cell line growth inhibition, 48 h
[1] = system: CCRF-CEM leukemia
[2] = system: U251 CNS
[3] = system: PC-3 prostate
[4] = system: SNB-75 CNS
[5] = system: NCI/ADR-RES ovarian
[6] = system: EKVX NSCLC
[7] = system: NCI-H23 lung
[8] = system: SF-295 CNS
[9] = system: NCI-H460 lung
[10] = system: M14 melanoma
[11] = system: SK-MEL-28 melanoma
[12] = system: SNB-19 CNS
[13] = system: SK-MEL-5 melanoma
[14] = system: A498 renal
[15] = system: MDA-MB-435
[16] = system: DU-145 prostate
[17] = system: UACC-62 melanoma
[18] = system: MALME-3M melanoma
[19] = system: IGROV1 ovarian
[20] = system: SK-MEL-2 melanoma
[21] = system: NCI-H226 lung
[22] = system: 786-0 renal
[23] = system: HT29 colon
[24] = system: ACHN renal
[25] = system: TK-10 renal
[26] = system: SF-539 CNS
[27] = system: HCT-116 colon
[28] = system: OVCAR-5 ovarian
[29] = system: OVCAR-4 ovarian
[30] = system: UACC-257 melanoma
[31] = system: KM12 colon
[32] = system: RPMI-8226 leukemia
[33] = system: HCC-2998 colon
[34] = system: BT-549 breast
[35] = system: SN12C renal
[36] = system: NCI-H522 lung
[37] = system: OVCAR-8 ovarian
[38] = system: T-47D breast
[39] = system: CAKI-1 renal
[40] = system: A549 NSCLC
[41] = system: OVCAR-3 ovarian
[42] = system: SF-268 CNS
[43] = system: MCF7 breast
[44] = system: LOX IMVI melanoma
[45] = system: HOP-92 NSCLC
[46] = system: COLO 205 colon
[47] = system: HS 578T breast
[48] = system: SK-OV-3 ovarian
[49] = system: MDA-MB-231 breast
[50] = system: HOP-62 NSCLC
[51] = system: HCT-15 colon
[52] = system: MOLT-4 leukemia
[53] = system: SW-620 colon
[54] = system: RXF 393 renal
[55] = system: UO-31 renal

Question: With `C=C(CNCCc1ccc(O)cc1)[C@@H]1CC[C@]2(CO)CC[C@]3(C)[C@H](CC[C@@H]4[C@@]5(C)CCC(NCCO)C(C)(C)[C@@H]5CC[C@]43C)[C@@H]12` (stereo not given in full) as the molecule, how does the GI50 [1] read?
Answer: 0.433 µM

Question: What about the TGI [1] of the same molecule?
Answer: 1.92 µM

Question: What about the GI50 [2] of the same molecule?
Answer: 1.06 µM

Question: And the TGI [2]?
Answer: 2.24 µM

Question: What about the GI50 [3] of the same molecule?
Answer: 1.6 µM

Question: And the TGI [3]?
Answer: 3.29 µM

Question: And the GI50 [4]?
Answer: 1.24 µM

Question: And the TGI [4]?
Answer: 2.52 µM

Question: And the GI50 [5]?
Answer: 2.09 µM

Question: What about the TGI [5] of the same molecule?
Answer: 4.88 µM

Question: And the GI50 [6]?
Answer: 1.6 µM

Question: What about the TGI [6] of the same molecule?
Answer: 3.41 µM

Question: And the GI50 [7]?
Answer: 1.78 µM

Question: And the TGI [7]?
Answer: 3.49 µM

Question: And the GI50 [8]?
Answer: 1.72 µM

Question: What about the TGI [8] of the same molecule?
Answer: 3.34 µM

Question: What about the GI50 [9] of the same molecule?
Answer: 1.75 µM

Question: What about the TGI [9] of the same molecule?
Answer: 3.29 µM

Question: And the GI50 [10]?
Answer: 1.61 µM

Question: And the TGI [10]?
Answer: 3.13 µM

Question: And the GI50 [11]?
Answer: 1.81 µM

Question: And the TGI [11]?
Answer: 3.38 µM

Question: And the GI50 [12]?
Answer: 1.63 µM

Question: What about the TGI [12] of the same molecule?
Answer: 3.03 µM

Question: What about the GI50 [13] of the same molecule?
Answer: 1.73 µM

Question: What about the TGI [13] of the same molecule?
Answer: 3.21 µM

Question: What about the GI50 [14] of the same molecule?
Answer: 1.72 µM

Question: And the TGI [14]?
Answer: 3.72 µM

Question: What about the GI50 [15] of the same molecule?
Answer: 1.51 µM

Question: What about the TGI [15] of the same molecule?
Answer: 2.97 µM

Question: What about the GI50 [16] of the same molecule?
Answer: 1.6 µM

Question: What about the TGI [16] of the same molecule?
Answer: 3.04 µM

Question: And the GI50 [17]?
Answer: 1.79 µM

Question: And the TGI [17]?
Answer: 3.3 µM

Question: And the GI50 [18]?
Answer: 1.54 µM

Question: What about the TGI [18] of the same molecule?
Answer: 3.08 µM

Question: And the GI50 [19]?
Answer: 1.94 µM

Question: What about the TGI [19] of the same molecule?
Answer: 3.9 µM

Question: And the GI50 [20]?
Answer: 1.79 µM

Question: And the TGI [20]?
Answer: 3.38 µM

Question: What about the GI50 [21] of the same molecule?
Answer: 2 µM

Question: And the TGI [21]?
Answer: 4.31 µM

Question: And the GI50 [22]?
Answer: 1.25 µM

Question: What about the TGI [22] of the same molecule?
Answer: 2.58 µM

Question: And the GI50 [23]?
Answer: 0.395 µM

Question: What about the TGI [23] of the same molecule?
Answer: 1.57 µM

Question: What about the GI50 [24] of the same molecule?
Answer: 1.79 µM

Question: And the TGI [24]?
Answer: 3.2 µM

Question: And the GI50 [25]?
Answer: 1.7 µM

Question: What about the TGI [25] of the same molecule?
Answer: 3.14 µM

Question: And the GI50 [26]?
Answer: 1.5 µM

Question: What about the TGI [26] of the same molecule?
Answer: 2.87 µM

Question: What about the GI50 [27] of the same molecule?
Answer: 0.351 µM

Question: What about the TGI [27] of the same molecule?
Answer: 1.19 µM

Question: What about the GI50 [28] of the same molecule?
Answer: 1.67 µM

Question: What about the TGI [28] of the same molecule?
Answer: 3.31 µM

Question: And the GI50 [29]?
Answer: 1.4 µM

Question: And the TGI [29]?
Answer: 3.17 µM

Question: What about the GI50 [30] of the same molecule?
Answer: 1.86 µM

Question: And the TGI [30]?
Answer: 3.27 µM

Question: And the GI50 [31]?
Answer: 1.66 µM

Question: What about the TGI [31] of the same molecule?
Answer: 3.16 µM

Question: What about the GI50 [32] of the same molecule?
Answer: 1.43 µM

Question: What about the TGI [32] of the same molecule?
Answer: 4 µM

Question: What about the GI50 [33] of the same molecule?
Answer: 1.57 µM

Question: And the TGI [33]?
Answer: 3.21 µM

Question: And the GI50 [34]?
Answer: 1.5 µM

Question: And the TGI [34]?
Answer: 3.15 µM

Question: And the GI50 [35]?
Answer: 1.75 µM

Question: What about the TGI [35] of the same molecule?
Answer: 3.25 µM

Question: And the GI50 [36]?
Answer: 1.81 µM

Question: And the TGI [36]?
Answer: 3.56 µM

Question: What about the GI50 [37] of the same molecule?
Answer: 1.79 µM

Question: What about the TGI [37] of the same molecule?
Answer: 3.22 µM

Question: And the GI50 [38]?
Answer: 1.79 µM

Question: What about the TGI [38] of the same molecule?
Answer: 3.96 µM

Question: What about the GI50 [39] of the same molecule?
Answer: 1.65 µM

Question: And the TGI [39]?
Answer: 3.29 µM

Question: And the GI50 [40]?
Answer: 1.7 µM

Question: And the TGI [40]?
Answer: 3.12 µM

Question: What about the GI50 [41] of the same molecule?
Answer: 1.73 µM

Question: What about the TGI [41] of the same molecule?
Answer: 3.51 µM

Question: What about the GI50 [42] of the same molecule?
Answer: 1.57 µM

Question: What about the TGI [42] of the same molecule?
Answer: 3.23 µM

Question: What about the GI50 [43] of the same molecule?
Answer: 0.4 µM

Question: And the TGI [43]?
Answer: 1.76 µM

Question: What about the GI50 [44] of the same molecule?
Answer: 1.39 µM

Question: What about the TGI [44] of the same molecule?
Answer: 2.88 µM

Question: What about the GI50 [45] of the same molecule?
Answer: 1.09 µM

Question: What about the TGI [45] of the same molecule?
Answer: 2.41 µM

Question: What about the GI50 [46] of the same molecule?
Answer: 1.54 µM

Question: What about the TGI [46] of the same molecule?
Answer: 3.13 µM

Question: What about the GI50 [47] of the same molecule?
Answer: 1.69 µM

Question: What about the TGI [47] of the same molecule?
Answer: 3.85 µM

Question: What about the GI50 [48] of the same molecule?
Answer: 1.85 µM

Question: What about the TGI [48] of the same molecule?
Answer: 3.52 µM

Question: What about the GI50 [49] of the same molecule?
Answer: 1.33 µM

Question: And the TGI [49]?
Answer: 2.74 µM

Question: And the GI50 [50]?
Answer: 1.64 µM

Question: What about the TGI [50] of the same molecule?
Answer: 3.23 µM

Question: And the GI50 [51]?
Answer: 1.57 µM

Question: What about the TGI [51] of the same molecule?
Answer: 3.37 µM

Question: What about the GI50 [52] of the same molecule?
Answer: 0.657 µM

Question: What about the TGI [52] of the same molecule?
Answer: 2.92 µM

Question: What about the GI50 [53] of the same molecule?
Answer: 1.27 µM

Question: What about the TGI [53] of the same molecule?
Answer: 2.68 µM

Question: And the GI50 [54]?
Answer: 1.27 µM

Question: And the TGI [54]?
Answer: 2.63 µM

Question: And the GI50 [55]?
Answer: 1.47 µM

Question: And the TGI [55]?
Answer: 2.86 µM
